Source: ChEMBL document CHEMBL1201862, “PubChem BioAssay data set” (2004)
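A five-concentration, 48-hour dose response in 96-well plates underlies each endpoint, interpolated linearly between surrounding concentrations. Here, GI50 denotes the concentration required for 50% inhibition of growth.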 Activity calls are given as the source filed them. No stated cut-off is given here; in the data, active = GI50 up to about 1.1 µM and inactive = higher.

Tests used:
Assay in all cases: inhibition of tumour cell growth, NCI panel, 48 h
SK-MEL-28 = tested on: SK-MEL-28
CCRF-CEM = tested on: CCRF-CEM
UACC-62 = tested on: UACC-62
NCI-H226 = tested on: NCI-H226
SW-620 = tested on: SW-620
SNB-75 = tested on: SNB-75
Hs-578T = tested on: Hs-578T
OVCAR-3 = tested on: OVCAR-3
SNB-19 = tested on: SNB-19
SN12C = tested on: SN12C
HT-29 = tested on: HT-29
NCI-H23 = tested on: NCI-H23
IGROV-1 = tested on: IGROV-1
UACC-257 = tested on: UACC-257
OVCAR-8 = tested on: OVCAR-8
SK-OV-3 = tested on: SK-OV-3
A549 = tested on: A549
HCC 2998 = tested on: HCC 2998
HOP-92 = tested on: HOP-92

Measured: GI50

CCCCCC(=O)n1[nH]c(=O)n(-c2ccc(OC)cc2)c1=O
inactive: SK-MEL-28 > 100 µM | CCRF-CEM > 100 µM | UACC-62 > 100 µM | NCI-H226 > 100 µM | SW-620 > 100 µM | SNB-75 > 100 µM | Hs-578T > 100 µM | OVCAR-3 > 100 µM | SNB-19 > 100 µM | SN12C > 100 µM | HT-29 > 100 µM | NCI-H23 > 100 µM | IGROV-1 > 100 µM | UACC-257 > 100 µM | OVCAR-8 > 100 µM | SK-OV-3 > 100 µM | A549 > 100 µM | HCC 2998 > 100 µM

O=C(O)CSC1=NC(=O)C2(NN1)c1ccccc1-c1ccccc12
inactive: SK-MEL-28 > 10 µM | CCRF-CEM > 10 µM | UACC-62 > 10 µM | NCI-H226 > 10 µM | SW-620 > 10 µM | SNB-75 > 10 µM | Hs-578T > 10 µM | SNB-19 > 10 µM | SN12C > 10 µM | HT-29 > 10 µM | NCI-H23 > 10 µM | IGROV-1 > 10 µM | HOP-92 > 10 µM | UACC-257 > 10 µM | OVCAR-8 > 10 µM | SK-OV-3 > 10 µM | A549 > 10 µM | HCC 2998 > 10 µM

CCCC(=O)NC(Nc1cc(C)ccn1)(C(=O)OCC)C(F)(F)F (centres undefined)
inactive: SK-MEL-28 > 100 µM | CCRF-CEM > 100 µM | UACC-62 > 100 µM | NCI-H226 > 100 µM | SW-620 > 100 µM | SNB-75 > 100 µM | Hs-578T > 100 µM | OVCAR-3 > 100 µM | SNB-19 > 100 µM | SN12C > 100 µM | HT-29 > 100 µM | NCI-H23 > 100 µM | IGROV-1 > 100 µM | HOP-92 91 µM | UACC-257 > 100 µM | OVCAR-8 > 100 µM | SK-OV-3 > 100 µM | A549 > 100 µM | HCC 2998 > 100 µM

O=C(NC(CO)CO)c1ccc2cc(C(=O)N3CC(CCl)c4ccc([N+](=O)[O-])cc43)[nH]c2c1 (centres undefined)
inactive: SK-MEL-28 > 100 µM | CCRF-CEM > 100 µM | UACC-62 > 100 µM | NCI-H226 > 100 µM | SW-620 > 100 µM | SNB-75 > 100 µM | Hs-578T > 100 µM | OVCAR-3 > 100 µM | SNB-19 > 100 µM | SN12C > 100 µM | HT-29 > 100 µM | NCI-H23 > 100 µM | IGROV-1 > 100 µM | HOP-92 > 100 µM | UACC-257 > 100 µM | OVCAR-8 > 100 µM | SK-OV-3 > 100 µM | A549 > 100 µM | HCC 2998 > 100 µM

[O-][S+](Nc1ccccc1)c1ccccc1Oc1ccccc1 (centres undefined)
inactive: SK-MEL-28 33.5 µM | CCRF-CEM 32.5 µM | NCI-H226 30.4 µM | SW-620 > 100 µM | SNB-75 28.6 µM | Hs-578T 2.84 µM | OVCAR-3 92.9 µM | SNB-19 38.9 µM | SN12C 86.7 µM | HT-29 60.5 µM | NCI-H23 29.8 µM | IGROV-1 2.62 µM | UACC-257 51.2 µM | OVCAR-8 26.9 µM | A549 27 µM | HCC 2998 24.3 µM

CCOc1cc(C(=O)O)c2c(ccc3ccc(OC)c(OC)c32)c1OC
inactive: SK-MEL-28 > 100 µM | CCRF-CEM > 100 µM | UACC-62 > 100 µM | NCI-H226 > 100 µM | SW-620 > 100 µM | SNB-75 > 100 µM | Hs-578T > 100 µM | OVCAR-3 > 100 µM | SNB-19 > 100 µM | SN12C > 100 µM | HT-29 > 100 µM | NCI-H23 > 100 µM | IGROV-1 > 100 µM | HOP-92 > 100 µM | UACC-257 > 100 µM | OVCAR-8 > 100 µM | SK-OV-3 > 100 µM | A549 > 100 µM | HCC 2998 > 100 µM
